Counter-ions that a name gives are not always drawn. Like-named read-outs stand apart in the source and are kept apart here.
How the values were obtained:
VMAT2 [1] = molecular target: T1, VMAT2 (Homo sapiens, UniProt Q05940); experiment: hVMAT2 [3H]DTBZ ([3H]DHTB) binding assay; design: expressed in transfected cells; host or cells: HEK (human embryonic kidney) cells
Method: (§1) Membrane preparation for binding, uptake and release assays using HEK-hVMAT2 cells: Human embryonic kidney cells expressing the human vesicular monoamine transporter 2 (HEK-hVMAT2) were used. HEK-hVMAT2 cells were grown until confluent. The media was removed from plates, solution A [sucrose (0.32 M) with protease inhibitors] was added to the plate, and cells were scraped from plate. Cells were homogenized with 12 strokes of a glass/glass homogenizer. The homogenate was centrifuged at 800×g for 10 min. The supernatant was removed and saved, and the pellet was resuspended, homogenized and centrifuged as above. The supernatants were combined and centrifuged at 10,000×g for 20 min. The pellet was resuspended in solution A (0.75 ml). The membranes were osmotically shocked by addition of 2.625 ml ice cold water and homogenized by 5 strokes of a glass/Teflon homogenizer. The osmolarity was reestablished with addition of Tris (338 μl, 0.25M, pH 7.4 at 4° C.), sodium potassium tartrate (338 μl, 1.0 M), and MgSO4 (4 μl, 0.9M). The homogenate was centrifuged at 20,000×g for 20 min.
Binding was terminated by filtration over Whatman GF/C filters using a Tomtec 96-well cell harvester. Filters were washed for six seconds with ice-cold saline. Scintillation fluid was added to each square and radioactivity remaining on the filters was determined using a Wallac μ- or beta-plate reader. Specific binding was defined as the difference in binding observed in the presence and absence of Ro4-1284 (10 μM, generously supplied by Hoffman LaRoche). Three or more independent competition experiments were conducted with duplicate determinations.

VMAT2 [2] = molecular target: T1, VMAT2; experiment: hVMAT2 5HT Uptake; assay type: biochemical; design: expressed in transfected cells; host or cells: HEK (human embryonic kidney) cells
Method: as §1

[3] = cells printed in μM under a head in nM, HEK-hVMAT2 membranes
[4] = [^3H]5HT uptake, HEK-hVMAT2 preparation, read-out: hVMAT2 5HT Uptake IC50 (nM) ± SEM
[5] = HEK-hVMAT2 membranes, series 5 ligands tested as hydrochloride salts
[6] = cells printed in μM under a head in nM, read-out: hVMAT2 5HT Uptake IC50 (nM) ± SEM

T1 sequence (Q05940 whole entry): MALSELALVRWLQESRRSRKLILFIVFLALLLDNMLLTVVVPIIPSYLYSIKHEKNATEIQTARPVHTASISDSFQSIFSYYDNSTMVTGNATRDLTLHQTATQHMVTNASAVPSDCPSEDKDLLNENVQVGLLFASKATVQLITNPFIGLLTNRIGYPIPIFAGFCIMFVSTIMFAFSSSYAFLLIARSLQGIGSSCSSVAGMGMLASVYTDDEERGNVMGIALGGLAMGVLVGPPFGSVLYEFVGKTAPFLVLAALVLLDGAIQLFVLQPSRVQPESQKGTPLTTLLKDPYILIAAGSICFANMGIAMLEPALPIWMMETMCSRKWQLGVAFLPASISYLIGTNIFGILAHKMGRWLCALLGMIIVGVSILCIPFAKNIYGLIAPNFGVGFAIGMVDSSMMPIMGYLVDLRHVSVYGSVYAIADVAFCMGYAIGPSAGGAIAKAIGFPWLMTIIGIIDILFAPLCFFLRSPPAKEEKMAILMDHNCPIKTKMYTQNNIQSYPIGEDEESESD

Ki (VMAT2 [1]; [3]) [µM]	IC50 (VMAT2 [2]; [4]) [nM]	melting point [°C]	SMILES	other results
> 5	31 ± 3	–	CCOC(=O)[C@H]1CN(CCn2c(=O)[nH]c3ccccc3c2=O)CC[C@H]1c1ccccc1C (racemic) [Compound 5z, (±)-syn-Ethyl 1-(2-(2,4-dioxo-1,2-dihydroquinazolin-3(4H),-yl)ethyl)-4-(o-tolyl)piperidine-3-carboxylate]	–
> 7	74 ± 11	–	CCOC(=O)[C@H]1CN(CCn2c(=O)[nH]c3ccccc3c2=O)CC[C@H]1c1cccc(N=[N+]=[N-])c1 (racemic) [Compound 5cc, (±)-syn-Ethyl 4-(3-azidophenyl)-1-(2-(2,4-dioxo-1,2-dihydroquinazolin-3(4H)-yl)ethyl)piperidine-3-carboxylate]	–
–	–	155 to 156	CCOC(=O)[C@H]1CN(CCn2c(=O)[nH]c3ccccc3c2=O)CC[C@H]1c1cccc(OC(F)(F)F)c1 (racemic) (as salt: HCl) [Compound 5jj, (±)-syn-Ethyl 1-(2-(2,4-dioxo-1,2-dihydroquinazolin-3(4H)-yl)ethyl)-4-(3-(trifluoromethoxy)phenyl)piperidine-3-carboxylate]	–
–	–	154.5 to 155.5	CCOC(=O)[C@H]1CN(CCn2c(=O)[nH]c3ccccc3c2=O)CC[C@H]1c1ccc(OC)c(OC)c1 (racemic) (as salt: HCl) [Compound 5dd, (±)-syn-Ethyl 4-(3,4-dimethoxyphenyl)-1-(2-(2,4-dioxo-1,2-dihydroquinazolin-3(4H),-yl)ethyl) piperidine-3-carboxylate]	–
–	–	145 to 146	CCOC(=O)[C@H]1CN(CCn2c(=O)[nH]c3ccccc3c2=O)CC[C@H]1c1ccc(CC)cc1 (racemic) (as salt: HCl) [Compound 5t, (±)-syn-Ethyl 1-(2-(2,4-dioxo-1,2-dihydroquinazolin-3(4H),-yl)ethyl)-4-(4-ethylphenyl) piperidine-3-carboxylate]	–
–	333 ± 85	–	CCOC(=O)[C@H]1CN(CCn2c(=O)[nH]c3ccccc3c2=O)CC[C@H]1c1ccc(O)c(O)c1 (racemic) [Compound 5ff, (±)-syn-Ethyl 4-(3,4-dihydroxyphenyl)-1-(2-(2,4-dioxo-1,2-dihydroquinazolin-3(4H)-yl)ethyl)piperidine-3-carboxylate]	–
–	53 ± 10	–	CCOC(=O)[C@H]1CN(CCn2c(=O)[nH]c3ccccc3c2=O)CC[C@H]1c1cccc(C)c1 (racemic) [Compound 5y, (±)-syn-Ethyl 1-(2-(2,4-dioxo-1,2-dihydroquinazolin-3(4H),-yl)ethyl)-4-(m-tolyl)piperidine-3-carboxylate]	Ki (VMAT2 [1]; [5]): > 6.2 µM
> 10	2150 ± 237	–	CCOC(=O)[C@H]1CN(CCn2c(=O)[nH]c3ccccc3c2=O)CC[C@H]1c1ccc(N)cc1 (racemic) [Compound 5mm, (±)-syn-Ethyl 4-(4-aminophenyl)-1-(2-(2,4-dioxo-1,2-dihydroquinazolin-3(4H),-yl)ethyl) piperidine-3-carboxylate]	–
> 10	180 ± 54	–	CCOC(=O)[C@H]1CN(CCn2c(=O)[nH]c3ccccc3c2=O)CC[C@H]1c1cccc(OC)c1 (racemic) [Compound 5q, (±)-syn-Ethyl 1-(2-(2,4-dioxo-1,2-dihydroquinazolin-3(4H),-yl)ethyl)-4-(3-methoxyphenyl) piperidine-3-carboxylate]	–
–	906 ± 14	–	CCOC(=O)[C@H]1CN(CCn2c(=O)[nH]c3ccccc3c2=O)CC[C@H]1c1ccc(CC)cc1 (racemic) [Compound 5t, (±)-syn-Ethyl 1-(2-(2,4-dioxo-1,2-dihydroquinazolin-3(4H),-yl)ethyl)-4-(4-ethylphenyl) piperidine-3-carboxylate]	Ki (VMAT2 [1]; [5]): > 8.4 µM
> 10	–	–	CCOC(=O)[C@H]1CN(CCn2c(=O)[nH]c3ccccc3c2=O)CC[C@H]1c1ccc(OC)c(OC)c1 (racemic) [Compound 5dd, (±)-syn-Ethyl 4-(3,4-dimethoxyphenyl)-1-(2-(2,4-dioxo-1,2-dihydroquinazolin-3(4H),-yl)ethyl) piperidine-3-carboxylate]	IC50 (VMAT2 [2]; [6]): > 3000 nM
> 10	36 ± 11	–	CCOC(=O)[C@H]1CN(CCn2c(=O)[nH]c3ccccc3c2=O)CC[C@H]1c1ccc(OC)cc1 (racemic) [Compound 5r, (±)-syn-Ethyl 1-(2-(2,4-dioxo-1,2-dihydroquinazolin-3(4H),-yl)ethyl)-4-(4-methoxyphenyl) piperidine-3-carboxylate]	–

Continued, compound first:

SMILES	Ki (VMAT2 [1]; [3]) [µM]	IC50 (VMAT2 [2]; [4]) [nM]	melting point [°C]	other results
CCCn1c(=O)n(CCN2CC[C@H](c3ccc(F)cc3)[C@H](C(=O)OCC)C2)c(=O)c2ccccc21 (racemic) [Compound 6b, (±) syn-ethyl 1-(2-(2,4-dioxo-1-propyl-1,2-dihydroquinazolin-3(4H)-yl)ethyl)-4-(4-fluorophenyl)piperidine-3-carboxylate]	–	–	96.8 to 97.7	–
CCOC(=O)[C@H]1CN(CCn2c(=O)[nH]c3ccccc3c2=O)CC[C@H]1c1ccc(C(C)C)cc1 (racemic) (as salt: HCl) [Compound 5u, (±)-syn-Ethyl 1-(2-(2,4-dioxo-1,2-dihydroquinazolin-3(4H),-yl)ethyl)-4-(4-isopropylphenyl) piperidine-3-carboxylate]	–	–	153 to 154	–
CCOC(=O)[C@H]1CN(CCn2c(=O)[nH]c3ccccc3c2=O)CC[C@H]1c1ccc2c(c1)OCCO2 (racemic) (as salt: HCl) [Compound 5gg, (±)-syn-Ethyl 4-(2,3-dihydrobenzo[b][1,4]dioxin-6-yl)-1-(2-(2,4-dioxo-1,2-dihydroquinazolin-3(4H)-yl)ethyl)piperidine-3-carboxylate]	–	–	178 to 179	–
O=C(c1ccc(F)cc1)C1CCN(CCn2c(=O)[nH]c3ccccc3c2=O)CC1 [R1=H, R2=H]	–	142 ± 23	–	Ki (VMAT2 [1]; [5]): 0.119 ± 0.003 µM
COC(=O)[C@H]1CN(CCn2c(=O)[nH]c3ccccc3c2=O)CC[C@H]1c1ccc(F)cc1 (racemic) (as salt: HCl) [Compound 10a, (±)-syn-Methyl 1-(2-(2,4-dioxo-1,2-dihydroquinazolin-3(4H),-yl)ethyl)-4-(4-fluorophenyl) piperidine-3-carboxylate]	–	–	191.5 to 193	–
CCOC(=O)[C@H]1CN(CCn2c(=O)[nH]c3ccccc3c2=O)CC[C@H]1c1ccc(OC(F)(F)F)cc1 (racemic) [Compound 5ii, (±)-syn-ethyl 1-(2-(2,4-dioxo-1,2-dihydroquinazolin-3(4H)-yl)ethyl)-4-(4-(trifluoromethoxy)phenyl)piperidine-3-carboxylate]	> 5	–	–	–
CCOC(=O)[C@H]1CN(CCn2c(=O)[nH]c3ccccc3c2=O)CC[C@H]1CCc1ccccc1 (racemic) (as salt: HCl) [Compound 5v, (±)-syn-Ethyl 1-(2-(2,4-dioxo-1,2-dihydroquinazolin-3(4H)-yl)ethyl)-4-phenethylpiperidine-3-carboxylate]	–	–	140 to 141	–
CCOC(=O)[C@H]1CN(CCn2c(=O)[nH]c3ccccc3c2=O)CC[C@H]1c1ccccc1N(C)C (racemic) (as salt: HCl) [Compound 5bb, (±)-syn-Ethyl 4-(2-(dimethylamino)phenyl)-1-(2-(2,4-dioxo-1,2-dihydroquinazolin-3(4H),-yl)ethyl) piperidine-3-carboxylate]	–	–	208 to 209	–
CCOC(=O)[C@H]1CN(CCn2c(=O)[nH]c3ccccc3c2=O)CC[C@H]1c1ccc(C(C)C)cc1 (racemic) [Compound 5u, (±)-syn-Ethyl 1-(2-(2,4-dioxo-1,2-dihydroquinazolin-3(4H),-yl)ethyl)-4-(4-isopropylphenyl) piperidine-3-carboxylate]	–	684 ± 249	–	Ki (VMAT2 [1]; [5]): 1.62 ± 0.107 µM
CCOC(=O)[C@H]1CN(CCn2c(=O)[nH]c3ccccc3c2=O)CC[C@H]1c1ccccc1N(C)C (racemic) [Compound 5bb, (±)-syn-Ethyl 4-(2-(dimethylamino)phenyl)-1-(2-(2,4-dioxo-1,2-dihydroquinazolin-3(4H),-yl)ethyl) piperidine-3-carboxylate]	> 6	–	–	IC50 (VMAT2 [2]; [6]): > 2000 nM
CCOC(=O)C1=C(c2ccccc2C(F)(F)F)CCN(CCn2c(=O)[nH]c3ccccc3c2=O)C1 [Compound 5hh, Ethyl 1-(2-(2,4-dioxo-1,2-dihydroquinazolin-3(4H)-yl)ethyl)-4-(2-(trifluoromethyl)phenyl)-1,2,5,6-tetrahydropyridine-3-carboxylate]	–	328 ± 38	–	–
CCOC(=O)[C@@H]1CN(CCn2c(=O)[nH]c3ccccc3c2=O)CC[C@@H]1c1ccc(C(N)=O)cc1 (racemic) [Compound 5i, (±) syn-ethyl 4-(4-carbamoylphenyl)-1-(2-(2,4-dioxo-1,2-dihydroquinazolin-3(4H)-yl)ethyl)piperidine-3-carboxylate]	> 3	–	–	IC50 (VMAT2 [2]; [6]): > 10000 nM
CCOC(=O)[C@H]1CN(CCn2c(=O)[nH]c3ccccc3c2=O)CC[C@H]1c1ccc(C)s1 [A1=CH3]	–	–	–	Ki (VMAT2 [1]): > 8 µM; IC50 (VMAT2 [2]): 312 ± 18 nM

— patent publication US9546151B2, “VMAT inhibitory compounds” (Oregon Health & Science University, priority 2014, dated 2017)
